What all share (assay): Checkerboard combination MIC testing
Common to all, as to assay type: cell-based, Aspergillus fumigatus

One assay concerns A. fumigatus MRL #28383. The settings on record: A. fumigatus MRL 28383 (azole-resistant), read at 48 hours, duplicate; for MIC: Aspergillus fumigatus, SCY078, 48 h, drug alone. The text has this:
(§1) To determine the type of interaction between a representative compound of the enfumafungin derivatives (SCY-078) with several antifungal agents against Aspergillus fumigatus, the most frequent mold causing invasive disease in humans, the checkerboard method was used. The citrate salt of the compound was used in the studies.
(§2) The checkerboard method involves the determination of percent growth inhibition of fungal cells in the presence of different combinations of drugs. Percent growth inhibition is calculated relative to growth in control wells which contain only cells and no drug. The assay was performed in 96-well microplates in which each row and each column contained twofold serial dilutions of drug A and drug B at concentrations ranging from 0 to slightly higher than their minimum inhibitory concentration (MIC). […] Then the inoculum was added to each well and the growth was evaluated after 48 hrs incubation to determine the first well in which growth was inhibited. The checkerboard-based determination of MICs of antifungal agents in combination was followed by further analysis employing the nonparametric fractional inhibitory concentration index (FICI), which is defined by the following equation:
(§3) [formula] where MIC-A and MIC-B are the MICs of drugs A and B, respectively.
(§4) Each drug was initially diluted in either sterile, distilled water or in DMSO, depending on whether the drug was water-soluble or water-insoluble, respectively.
(§5) Stock solution of SCY-078 was prepared in DMSO at 200 times the concentration desired for use in the drug plates. Serial dilutions of stock solution were conducted in DMSO to obtain eleven 2-fold dilutions of the drug. The SCY-078 solution was then diluted to 4 times the desired concentration in RPMI-1640 medium so that the DMSO would not limit growth of the organism and so that the quantity of DMSO was the same for every dilution.
(§6) Two 96-well plates are needed to conduct a combination test. Using a multichannel pipette, 50 μl of the lowest concentration of the first drug (Drug A) was added to each well of column 1 of the first plate (plate A) and column 1 of the second plate (plate B; rows A-D). Then, 50 μl of the next highest working dilution of Drug A was added to each well in column 2, continuing with dilutions until all columns 1-11 were filled. Column 12 was left empty. 50 μl of the lowest concentration of Drug B was added to each well in Row D of plate B. 50 μl of the next highest working dilution of Drug B was added to each well in row C of plate B, continuing with dilutions until all rows through row B of plate A were filled.
(§7) Following the above, 100 μl of organism inoculum was added to every well. The plates were then incubated for 48 hours and visually read after incubation.
(§8) The objective of the study was to determine whether the combination of SCY-078 with voriconazole, isavuconazole, or amphotericin B would result in a combined in vitro antifungal activity exceeding the sum of the activities of each drug alone. Combination MIC testing was performed using the checkerboard assay described above.
(§9) Initial MIC determinations of the individual antifungals were performed according to the Clinical and Laboratory Standards Institute (CLSI) M38-A2 standard for the susceptibility testing of filamentous fungi.
(§10) Combination MIC testing was performed using a checkerboard test method according to the Center for Medical Mycology SOP A11.3. The checkerboard combination test method is a modification of the microdilution antifungal susceptibility test wherein two test compounds are combined in varying concentrations to determine whether they have synergistic, antagonistic, or no effect on the respective MIC values.
(§11) Antifungals were serially diluted two-fold in RPMI medium to produce eleven concentrations each and were combined in wells of a microtiter plate. Two rows consisting of serial dilutions of each individual drug were included. All combination testing was conducted in duplicate. […]

For another assay, the system named is A. fumigatus MRL #28401. The settings on record: A. fumigatus MRL 28401 (wild-type), read at 48 hours, duplicate; for MIC per drug in Combination: SCY-078 combined with isavuconazole; for MIC: Aspergillus fumigatus, SCY078, 48 h.
From the text: as §1, §2, §3, §4, §5, §6, §7, §8, §9, §10, §11

Another assay has as its system A. fumigatus MRL #28378. To be noted: A. fumigatus MRL 28378 (wild-type), read at 48 hours, duplicate; for MIC per drug in Combination: SCY-078 combined with isavuconazole; for MIC: Aspergillus fumigatus, SCY078, 48 h.
From the text: as §1, §2, §3, §4, §5, §6, §7, §8, §9, §10, §11

In a further assay the test system is A. fumigatus MRL #20438. The settings on record: A. fumigatus MRL 20438 (wild-type), read at 48 hours, duplicate; for MIC per drug in Combination: SCY-078 combined with isavuconazole; for MIC: Aspergillus fumigatus, SCY078, 48 h.
From the text: as §1, §2, §3, §4, §5, §6, §7, §8, §9, §10, §11

The test system of the next assay is A. fumigatus MRL #28382. To be noted: A. fumigatus MRL 28382 (wild-type), read at 48 hours, duplicate; for MIC: Aspergillus fumigatus, SCY078, 48 h.
From the text: as §1, §2, §3, §4, §5, §6, §7, §8, §9, §10, §11

The test system of a further assay is A. fumigatus MRL #28500. The settings on record: read at 48 hours, duplicate.
From the text: as §1, §2, §3, §4, §5, §6, §7, §8
A. fumigatus 28500 has a CYP51 mutation at F46Y.
as §9, §10
Antifungals were serially diluted two-fold in RPMI medium to produce eleven concentrations each and were combined in wells of a microtiter plate. Two rows consisting of serial dilutions of each individual drug were included. […]

Where [1] appears, read: SCY-078 combined with isavuconazole.
Where [2] appears, read: SCY-078/isavuconazole test, read-out: MIC per drug Alone.
Setting [3] is: drug alone, SCY-078/isavuconazole test, read-out: MIC per drug Alone.
[4] abbreviates: SCY-078 combined with amphotericin B.
The mark [5] stands for this setting: SCY-078 combined with voriconazole.
The mark [6] stands for this setting: drug alone, SCY-078/amphotericin B test.
[7] abbreviates: drug alone, SCY-078/isavuconazole test.
Where [8] appears, read: drug alone, SCY-078/amphotericin B test, read-out: MIC Alone.
Where [9] appears, read: drug alone, SCY-078/voriconazole test, read-out: MIC Alone.
Where [10] appears, read: drug alone, SCY-078/voriconazole test.

Values joined by “and” are separate entries in the source; they are usually repeats but may differ in a detail not shown here. Identical values can stand only once. Like-named read-outs stand apart in the source and are kept apart here. A value given as a limit tells only on which side of the number the result lay.

As to `C[C@@H](c1nc(-c2ccc(C#N)cc2)cs1)[C@](O)(Cn1cncn1)c1cc(F)ccc1F` [Isavuconazole, isavuconazole], the “MIC per drug in Combination” value was >8 µg/mL and 4 µg/mL in the assay with A. fumigatus MRL #28383 (setting [1]); 0.25 µg/mL with A. fumigatus MRL #28401; 0.125 µg/mL and 0.25 µg/mL with A. fumigatus MRL #28378; 0.5 µg/mL in the assay on A. fumigatus MRL #20438; 0.25 µg/mL with A. fumigatus MRL #28382 (setting [1]); more than 8 µg/mL in the assay on A. fumigatus MRL #28500 (A. fumigatus MRL 28500 (azole-resistant, CYP51 F46Y), SCY-078 combined with isavuconazole). Also, the MIC with A. fumigatus MRL #28383 (setting [2]) was more than 8 µg/mL; in the assay on A. fumigatus MRL #28401 (setting [3]) it was 1 µg/mL; in the assay on A. fumigatus MRL #28378 (setting [3]), 1 µg/mL; in the assay with A. fumigatus MRL #20438 (setting [3]) it was 1 µg/mL; in the assay on A. fumigatus MRL #28500 (Aspergillus fumigatus, SCY078, 48 h, read-out: MIC per drug Alone, A. fumigatus MRL 28500 (azole-resistant, CYP51 F46Y), drug alone, SCY-078/isavuconazole test) it was more than 8 µg/mL.

As for `CC(C)[C@@H](C)[C@@]1(C)CC[C@]2(C)[C@H]3CC[C@@H]4[C@@]5(COC[C@@]4(C)[C@@H](OC[C@](C)(N)C(C)(C)C)[C@H](n4ncnc4-c4ccncc4)C5)C3=CC[C@@]2(C)[C@@H]1C(=O)O` [SCY-078, (1S,4aR,6aS,7R,8R,10aR,10bR,12aR,14R,15R)-15-[[(2R)-2-amino-2,3,3-trimethylbutyl]oxy]-8-[(1R)-1,2-dimethylpropyl]-14-[5-(4-pyridinyl)-1H-1,2,4-triazol-1-yl]-1,6,6a,7,8,9,10,10a,10b,11,12,12a-dodecahydro-1,6a,8,10a-tetramethyl-4H-1,4a-propano-2H-phenanthro[1,2-c]pyran-7-carboxylic acid], the “MIC in Combination” value is 0.016 µg/mL in the assay with A. fumigatus MRL #28383 (setting [4]); 0.031 µg/mL with A. fumigatus MRL #28383 (setting [5]); 0.016 µg/mL and 0.031 µg/mL in the assay on A. fumigatus MRL #28401 (setting [4]); 0.25 µg/mL and 0.125 µg/mL in the assay on A. fumigatus MRL #28401 (setting [5]); 0.016 µg/mL in the assay with A. fumigatus MRL #28378 (setting [4]); 0.5 µg/mL in the assay on A. fumigatus MRL #28378 (setting [5]). Also, the “MIC in Combination” value was 0.016 µg/mL with A. fumigatus MRL #20438 (setting [4]); 0.125 µg/mL and 0.25 µg/mL in the assay on A. fumigatus MRL #20438 (setting [5]); 1 µg/mL in the assay on A. fumigatus MRL #28500 (A. fumigatus MRL 28500 (azole-resistant, CYP51 F46Y), SCY-078 combined with voriconazole). Also, the MIC with A. fumigatus MRL #28383 (SCY-078/amphotericin B test, read-out: MIC Alone) was 4 µg/mL; with A. fumigatus MRL #28383 (setting [2]) it was 4 µg/mL; in the assay on A. fumigatus MRL #28383 (SCY-078/voriconazole test, read-out: MIC Alone) it was 8 µg/mL; with A. fumigatus MRL #28401 (setting [8]), 4 µg/mL; with A. fumigatus MRL #28401 (setting [3]), 4 µg/mL; with A. fumigatus MRL #28401 (setting [9]), 8 µg/mL. Also, the minimal inhibitory concentration (MIC) in the assay with A. fumigatus MRL #28378 (setting [8]) turned out to be 4 µg/mL; in the assay with A. fumigatus MRL #28378 (setting [3]), 4 µg/mL; with A. fumigatus MRL #28378 (setting [9]), 8 µg/mL; in the assay on A. fumigatus MRL #20438 (setting [8]), 4 µg/mL; in the assay on A. fumigatus MRL #20438 (setting [3]) it was 4 µg/mL; in the assay on A. fumigatus MRL #20438 (setting [9]) it was 8 µg/mL. The results for the MIC in the assay with A. fumigatus MRL #28382 (setting [8]), in the assay on A. fumigatus MRL #28382 (setting [3]) and in the assay on A. fumigatus MRL #28382 (setting [9]) were 4 µg/mL, 8 µg/mL and 8 µg/mL, respectively. In addition, the “MIC per drug in Combination” value in the assay on A. fumigatus MRL #28401 is 0.25 µg/mL and 0.5 µg/mL; in the assay with A. fumigatus MRL #28378, 0.125 µg/mL; in the assay on A. fumigatus MRL #20438 it was 0.016 µg/mL. For the same compound, the “MIC Alone” value stood at 8 µg/mL with A. fumigatus MRL #28401 (setting [6]); 4 µg/mL with A. fumigatus MRL #28378 (setting [10]); 4 µg/mL in the assay with A. fumigatus MRL #20438 (setting [10]); 8 µg/mL in the assay on A. fumigatus MRL #28382 (setting [6]); 8 µg/mL with A. fumigatus MRL #28500 (A. fumigatus MRL 28500 (azole-resistant, CYP51 F46Y), drug alone, SCY-078/voriconazole test). In addition, the “MIC per drug Alone” value with A. fumigatus MRL #28401 (setting [7]) stood at 8 µg/mL; in the assay with A. fumigatus MRL #28382 (setting [7]), 4 µg/mL.
